In US4853209A, “Bone marrow suppressing agents” (The Dow Chemical Company, priority 1987, dated 1989):
Read-outs that look alike come from different tables or passages of the source.

What was measured:
[1] = rabbit, three hours, averaged for 5 rabbits
Procedure: The composition of Example 7 was also evaluated in rabbits. The rabbits were injected with 100-250 microliters of the composition via a cannula placed in the marginal ear vein.
Three hours after injection, a blood sample was taken by cardiac puncture and the animal was then sacrificed by injection of a commercial euthanasia solution.

[2] = rat
Procedure: Quantitative biodistributions in rats are obtained by injecting 50-100 microliters (μl) of the radionuclide composition into the tail vein of unanesthetized laboratory rats. After a given period of time, the rats are sacrificed by cervical dislocation and various organs and tissues removed. The tissue samples are then rinsed, blotted dry and weighed. The radioactivity in the tissue samples are measured using a NaI scintillation counter in order to determine the biolocalization of the radionuclide.
The numbers given for each Example, with respect to Tables I, II and III represent the percentage of the administered dose which localized in the indicated tissue. The ratio of radioactivity observed in bone relative to other organs was calculated based on the percent dose per gram in the bone and in the particular organ.
A series of rats was injected with the composition of Example 7 and sacrificed in groups of five at various intervals.

bone marrow [3] = details: normal beagles, various dose levels, weekly blood samples
Procedure: A series of normal beagles was treated with various dose levels of the composition of Example 7. Blood samples were obtained weekly with white blood cell and platelet counts taken to monitor for signs of bone marrow suppression.

[4] = Two hour rat biolocalization of radionuclide compositions (Tables I, II, III); type: in vivo; details: 2 h, average of five rats; for Bone/Blood Ratio / Bone/Muscle Ratio: from percent dose per gram; for % Dose in Blood / % Dose in Liver / % Dose in Skeleton / % Dose in Urine / % Dose in Muscle: tail vein
Procedure: A vial is used to prepare the sample for injection. The vial contains 210 mg EDTMP and 140 mg of NaOH such that addition of 6 ml of a 3×10^-4 M Ho-166 solution in 0.1M HCl gave a final pH in the range of 7-8, forming the Ho-166 EDTMP composition. After checking the pH, samples were drawn for injection into Sprague-Dawley rats. Rats were injected with 100 microliters of the solution via a tail vein. Two hours after the injection the rats were killed by cervical dislocation and dissected. The amount of radiation in each tissue was obtained by counting in a NaI well counter and comparing to standards.
The biolocalization of compositions prepared as described in Examples 7, 8, 9 and 10 was determined in rats.
The numbers given in Table I represent the average of the results of five rats per Example.
The biolocalization of the composition prepared as described in Example 12 was determined in rats.
The numbers given in Table II represent the average of the results of testing in three rats.
The biolocalization of compositions prepared as described in Examples 14 and 15 was determined in rats.
The numbers given in Table III represent the average of the results of five rats per Example.

bone marrow [5] = details: mouse about 20 g, 198 μCi, six days
Procedure: A mouse weighing about 20 g is injected with 198 μCi of a Ho-166 EDTMP composition. After six days, the animal is sacrificed and both femurs and the sternum removed. The same bones are also taken from a nontreated animal (control). The tissues are fixed using standard histochemical procedures and decalcified using formic acid. The tissues are embedded in paraffin, three micron sections cut, placed on glass slides, and stained with hematoxilyn and eosin.

O=P(O)(O)CN(CCN(CP(=O)(O)O)CP(=O)(O)O)CP(=O)(O)O.[153Sm] [Example 7]
% Dose in Blood ([1]; marginal ear vein): 0.12 % Dose | % Dose in Liver ([1]; marginal ear vein): 0.95 % Dose | % Dose in Skeleton ([1]; marginal ear vein): 66 % Dose | % Dose in Urine ([1]; marginal ear vein, 180 min): 34 % Dose | Bone/Blood Ratio [1]: 900 | Bone/Muscle Ratio [1]: 1200 | blood clearance [2]: rapid blood clearance | uptake in bone [2]: rapid uptake in bone | Bone/Blood ([2]; 1 Hr): 120 | Bone/Muscle ([2]; 1 Hr): 300 | Percent of the Administered Dose, Blood ([2]; 1 Hr): 0.5% of the Administered Dose | Percent of the Administered Dose, Kidneys ([2]; 1 Hr): 0.47% of the Administered Dose | Percent of the Administered Dose, Liver ([2]; 1 Hr): 0.32% of the Administered Dose | Percent of the Administered Dose, Skeleton ([2]; 1 Hr): 58% of the Administered Dose | Percent of the Administered Dose, Urine ([2]; 1 Hr): 47% of the Administered Dose | Bone/Blood ([2]; 2 Hrs): 1800 | Bone/Muscle ([2]; 2 Hrs): 1500 | Percent of the Administered Dose, Blood ([2]; 2 Hrs): 0.03% of the Administered Dose | Percent of the Administered Dose, Kidneys ([2]; 2 Hrs): 0.25% of the Administered Dose | Percent of the Administered Dose, Liver ([2]; 2 Hrs): 0.25% of the Administered Dose | Percent of the Administered Dose, Skeleton ([2]; 2 Hrs): 58% of the Administered Dose | Percent of the Administered Dose, Urine ([2]; 2 Hrs): 49% of the Administered Dose | Bone/Blood ([2]; 5 Hrs): 4200 | Bone/Muscle ([2]; 5 Hrs): 3600 | Percent of the Administered Dose, Blood ([2]; 5 Hrs): 0.008% of the Administered Dose | Percent of the Administered Dose, Kidneys ([2]; 5 Hrs): 0.36% of the Administered Dose | Percent of the Administered Dose, Liver ([2]; 5 Hrs): 0.37% of the Administered Dose | Percent of the Administered Dose, Skeleton ([2]; 5 Hrs): 59% of the Administered Dose | Percent of the Administered Dose, Urine ([2]; 5 Hrs): 46% of the Administered Dose | Bone/Blood ([2]; 15 Min): 7 | Bone/Muscle ([2]; 15 Min): 30 | Percent of the Administered Dose, Blood ([2]; 15 Min): 5.9% of the Administered Dose | Percent of the Administered Dose, Kidneys ([2]; 15 Min): 1.745% of the Administered Dose | Percent of the Administered Dose, Liver ([2]; 15 Min): 0.96% of the Administered Dose | Percent of the Administered Dose, Skeleton ([2]; 15 Min): 48% of the Administered Dose | Percent of the Administered Dose, Urine ([2]; 15 Min): 28% of the Administered Dose | Bone/Blood ([2]; 24 Hrs): 6700 | Bone/Muscle ([2]; 24 Hrs): 2400 | Percent of the Administered Dose, Blood ([2]; 24 Hrs): 0.007% of the Administered Dose | Percent of the Administered Dose, Kidneys ([2]; 24 Hrs): 0.25% of the Administered Dose | Percent of the Administered Dose, Liver ([2]; 24 Hrs): 0.35% of the Administered Dose | Percent of the Administered Dose, Skeleton ([2]; 24 Hrs): 52% of the Administered Dose | Percent of the Administered Dose, Urine ([2]; 24 Hrs): 55% of the Administered Dose | Bone/Blood ([2]; 30 Min): 20 | Bone/Muscle ([2]; 30 Min): 70 | Percent of the Administered Dose, Blood ([2]; 30 Min): 2.3% of the Administered Dose | Percent of the Administered Dose, Kidneys ([2]; 30 Min): 0.805% of the Administered Dose | Percent of the Administered Dose, Liver ([2]; 30 Min): 0.53% of the Administered Dose | Percent of the Administered Dose, Skeleton ([2]; 30 Min): 53% of the Administered Dose | Percent of the Administered Dose, Urine ([2]; 30 Min): 42% of the Administered Dose | Bone/Blood ([2]; 48 Hrs): 8200 | Bone/Muscle ([2]; 48 Hrs): 2800 | Percent of the Administered Dose, Blood ([2]; 48 Hrs): 0.006% of the Administered Dose | Percent of the Administered Dose, Kidneys ([2]; 48 Hrs): 0.29% of the Administered Dose | Percent of the Administered Dose, Liver ([2]; 48 Hrs): 0.46% of the Administered Dose | Percent of the Administered Dose, Skeleton ([2]; 48 Hrs): 60% of the Administered Dose | Percent of the Administered Dose, Urine ([2]; 48 Hrs): 50% of the Administered Dose | Bone/Blood ([2]; 72 Hrs): 7800 | Bone/Muscle ([2]; 72 Hrs): 3400 | Percent of the Administered Dose, Blood ([2]; 72 Hrs): 0.006% of the Administered Dose | Percent of the Administered Dose, Kidneys ([2]; 72 Hrs): 0.22% of the Administered Dose | Percent of the Administered Dose, Liver ([2]; 72 Hrs): 0.49% of the Administered Dose | Percent of the Administered Dose, Skeleton ([2]; 72 Hrs): 57% of the Administered Dose | Percent of the Administered Dose, Urine ([2]; 72 Hrs): 53% of the Administered Dose | clearance of the radioactivity from the skeletal system ([2]; throughout the course of the experiment): no significant clearance of the radioactivity from the skeletal system | platelet count (bone marrow [3]): dose dependent reduction | white blood cell count (bone marrow [3]): dose dependent reduction | Bone/Blood Ratio [4]: 1800 | Bone/Muscle Ratio [4]: 1500 | % Dose in Blood [4]: 0.032 % Dose | % Dose in Liver [4]: 0.25 % Dose | % Dose in Skeleton [4]: 58 % Dose | % Dose in Urine [4]: 49 % Dose

O=P(O)(O)CN(CCN(CP(=O)(O)O)CP(=O)(O)O)CCN(CP(=O)(O)O)CP(=O)(O)O.[153Sm] [Example 8]
Bone/Blood Ratio [4]: 224 | Bone/Muscle Ratio [4]: 220 | % Dose in Blood [4]: 0.16 % Dose | % Dose in Liver [4]: 0.27 % Dose | % Dose in Skeleton [4]: 30 % Dose | % Dose in Urine [4]: 74 % Dose

O=P(O)(O)CN(CCO)CCN(CP(=O)(O)O)CP(=O)(O)O.[153Sm] [Example 9]
Bone/Blood Ratio [4]: 1300 | Bone/Muscle Ratio [4]: 1300 | % Dose in Blood [4]: 0.035 % Dose | % Dose in Liver [4]: 0.45 % Dose | % Dose in Skeleton [4]: 57 % Dose | % Dose in Urine [4]: 50 % Dose

O=P(O)(O)CN(CCN(CCN(CP(=O)(O)O)CP(=O)(O)O)CCN(CP(=O)(O)O)CP(=O)(O)O)CP(=O)(O)O.[153Sm] [Example 10]
Bone/Blood Ratio [4]: 80 | Bone/Muscle Ratio [4]: 410 | % Dose in Blood [4]: 0.25 % Dose | % Dose in Liver [4]: 0.18 % Dose | % Dose in Skeleton [4]: 28 % Dose | % Dose in Urine [4]: 65 % Dose

O=P(O)(O)CN(CCN(CP(=O)(O)O)CP(=O)(O)O)CP(=O)(O)O.[166Ho] [Example 12]
suppression of the marrow (bone marrow [5]): suppression of the marrow | density of hemapoetic stem cells in marrow (bone marrow [5]; vs nontreated control): significantly lower density of hemapoetic stem cells | number of red blood cells in marrow (bone marrow [5]; vs nontreated control): significantly higher number of red blood cells

O=P(O)(O)CN(CCN(CP(=O)(O)O)CP(=O)(O)O)CP(=O)(O)O.[159Gd] [Example 14]
Bone/Blood Ratio [4]: 305 | Bone/Muscle Ratio [4]: 577 | % Dose in Blood [4]: 0.15 % Dose | % Dose in Liver [4]: 0.25 % Dose | % Dose in Muscle [4]: 0.56 % Dose | % Dose in Skeleton [4]: 57 % Dose

O=P(O)(O)CN(CCO)CCN(CP(=O)(O)O)CP(=O)(O)O.[159Gd] [Example 15]
Bone/Blood Ratio [4]: 335 | Bone/Muscle Ratio [4]: 548 | % Dose in Blood [4]: 0.14 % Dose | % Dose in Liver [4]: 0.57 % Dose | % Dose in Muscle [4]: 0.76 % Dose | % Dose in Skeleton [4]: 60 % Dose
